US5387592A, “Substituted benzoxazole, benzthiazole, and benzimidazole derivatives as angiotensin II antagonists” (Imperial Chemical Industries PLC, priority 1991, dated 1995)
Structures can show the parent of a compound that is named as a salt.

Molecular target: T1, AII receptors (Cavia porcellus, UniProt Q9WV26)
T1 construct: the source of cell surface membranes is the guinea pig adrenal gland; from tissue; host or cells: guinea pig adrenal gland, cell surface membrane fraction
T1 sequence (Q9WV26 1-359): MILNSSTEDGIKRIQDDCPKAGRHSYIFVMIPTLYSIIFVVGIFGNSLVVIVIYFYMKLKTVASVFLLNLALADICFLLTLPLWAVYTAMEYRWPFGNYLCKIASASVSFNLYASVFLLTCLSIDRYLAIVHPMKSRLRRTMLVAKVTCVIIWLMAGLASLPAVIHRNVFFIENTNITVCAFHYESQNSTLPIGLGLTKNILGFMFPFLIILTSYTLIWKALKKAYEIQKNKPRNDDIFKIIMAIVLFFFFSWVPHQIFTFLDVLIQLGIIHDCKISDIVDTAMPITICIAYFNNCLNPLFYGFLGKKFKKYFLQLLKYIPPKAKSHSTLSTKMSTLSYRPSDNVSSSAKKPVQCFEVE
Test: Test A: displacement of radiolabelled AII binding from guinea pig adrenal gland membrane fraction
Details: guinea pig adrenal gland membranes; read-out: IC50 (concentration for 50% displacement of radiolabelled AII binding)
Experimental: This in vitro procedure involves the incubation of the test compound initially at a concentration of 100 micromolar (or less) in a buffered mixture containing fixed concentrations of radiolabelled AII and a cell surface membrane fraction prepared from a suitable angiotensin target tissue. In this test, the source of cell surface membranes is the guinea pig adrenal gland which is well known to respond to AII. Interaction of the radiolabelled AII with its receptors (assessed as radiolabel bound to the particulate membrane fraction following removal of unbound radiolabel by a rapid filtration procedure such as is standard in such studies) is antagonized by compounds which also bind to the membrane receptor sites and the degree of antagonism (observed in the test as displacement of membrane-bound radioactivity) is determined readily by comparing the receptor-bound radioactivity in the presence of the test compound at the specified test concentration with a control value determined in the absence of the test compound. Using this procedure compounds showing at least 50% displacement of radiolabelled AII binding at a concentration of 10^-4 M are retested at lower concentrations to determine their potency. […]

IC50: 200 nM
SMILES: CCc1cc(OCc2ccc3oc(-c4ccccc4-c4nnn[nH]4)nc3c2)c2c(n1)CCCC2 [Example 3, 2-ethyl-5,6,7,8-tetrahydro-4-[(2-(2-(1H-tetrazol-5-yl)phenyl)benzoxazol-5-yl)methoxy]quinoline hydrochloride]
